Laboratory results reported in patent US6995135B2, “Peptides and peptidomimetics having anti-proliferative activity and/or that augment nucleic acid damaging agents or treatments” (priority 2002, dated 2006).
“Also recorded” adds a separate entry of the source. Square brackets hold non-standard residues; d marks the D form. Peptide text beside a SMILES is read from it. dPhe(F5) = N[C@H](Cc1c(F)c(F)c(F)c(F)c1F)C(=O)O; dBpa = N[C@H](Cc1ccc(C(=O)c2ccccc2)cc1)C(=O)O; dCha = N[C@H](CC1CCCCC1)C(=O)O

Assays:
[1] = system: Jurkat cells; test: G2 checkpoint abrogation in bleomycin treated Jurkat cells, flow cytometry; assay type: cell-based, human; conditions: Jurkat cells; with 40 μg/ml bleomycine, 24 hours; dose with detectable G2 checkpoint abrogation
Experimental: Flow cytometry analysis of G2 checkpoint abrogation was performed using human leukemia derived Jurkat cell line. In brief, cultured cells were treated with various doses of peptide/peptidomimetic and 40 μg/ml bleomycine for 24 hr. The DNA of the cells was stained with propidium iodide and analyzed by flow cytometry.
The “Appearance of side effect when used alone” indicates the peptide/peptidomimetic dose that produced Jurkat cell cycle disturbance, i.e., the appearance of significant amounts of SubG1 cells (dead cells) or cells in which the DNA content of each varies more than usual. […] The “G2 abrogating dose” indicates the peptide/peptidomimetic dose with 40 μg/ml bleomycine that produced detectable G2 checkpoint abrogation activity following treatment for 24 hours. The “Appearance of side effect when used with colchicine” indicates the peptide/peptidomimetic dose with 5 μg/ml colchicine that produced Jurkat cell cycle disturbance following treatment for 24 hours.

[2] = system: Jurkat cells; test: M phase checkpoint abrogation / non specific toxicity in colchicine treated Jurkat cells, flow cytometry; assay type: cell-based; conditions: 0.5 μg/ml colchicine, up to 50 μM of peptide, FIG. 12
Experimental: Cell-cycle analysis The cell cycle status of the cells treated with bleomycin or adriamcin were analyzed by flow cytometry as described by Kawabe (1997) Nature 385:454–458. In brief, two million cells were re-suspended and incubated in 200 μul Krishan's solution (0.1% Sodium citrate, 50 μg/ml PI, 20 μg/ml RNase A and 0.5% NP-40) for 1 hr at 4° C. and analyzed by a flow cytometry, FACScan™ (Beckton Dickinson, Mountain View, Calif.) with the program CELLQuest™ (Beckton Dickinson).
Flow cytometry analysis of M phase checkpoint abrogation by the compounds was performed using human T cell leukemia Jurkat cell line treated with colchicine (5 μg/ml or 0.5 μg/ml) and various doses of peptide/peptidomimetics for 24 hr (FIG. 12). The DNA of the cells was stained and analyzed by flow cytometry as described above.
The “Appearance of side effect when used alone” indicates the peptide/peptidomimetic dose that produced Jurkat cell cycle disturbance, i.e., the appearance of significant amounts of SubG1 cells (dead cells) or cells in which the DNA content of each varies more than usual. […]
A comparison between G2 checkpoint abrogating activity and non specific toxicity (M checkpoint abrogation) by CB501 was performed. […] The DNA amount in each of the treated cells was analyzed by flow cytometry, as previously described.

[3] = system: HUVEC; test: G2 checkpoint abrogation with cis-platin, flow cytometry; assay type: cell-based, human; conditions: normal G1 checkpoint, at least up to 50 μM CBP501
Experimental: The medium was aspirated, fresh medium without these compounds was added and the cells were incubated for an additional 45 hr. The cells including floating cells were harvested using trypsin-EDTA solution, incubated with Krishan's solution and analyzed for DNA content by flow cytometry as previously described.

[4] = system: MIAPaCa2; test: Sensitization of MIAPaCa2 to bleomycin or adriamycin, % sub-G1 cells by flow cytometry; assay type: cell-based, human; conditions: bleomycine 10 μg/ml or adriamycin 1 μg/ml, 3 hours then 21 hours
Experimental: Cell culture A human T-cell leukemia-derived cell line, Jurkat, was cultured in RPMI 1640 (Sigma) supplemented with 10% fetal calf serum (IBL: Immuno-Biological Laboratories, Gunma, Japan) at 37° C./5% CO2. Human pancreatic cancer derived cell line, MIAPaCa2 was cultured in DMEM with 10% fetal calf serum at 37° C./5% CO2.
The G2 checkpoint abrogating activity of various compounds at different doses on human pancreatic cancer derived cell line MIAPaCa2 treated with bleomycine (Bleo) or adriamycin (ADR) was studied. Briefly, cells were incubated with the compounds and bleomycine (10 μg/ml) or adriamycin (1 μg/ml) for 3 hours. The medium was changed and incubated for an additional 21 hours. Harvested cells were stained for DNA by propium iodide and analyzed with flow cytometry as previously described. The % of the sub-G1 cell population is indicated as dead cells in FIG. 3.

[5] = Human serum treatment analysis, residual G2 checkpoint abrogating activity; assay type: in vitro ADME; conditions: d-type amino acid peptides compared with l-type peptide such as CBP413
Experimental: Serum analysis was performed to determine the stability of peptides in mouse and human serum. Briefly, peptides (10 mM or 2.5 mM) were incubated with freshly prepared human serum at 37 degrees for 1 hr. CBP50 (10 mM) was incubated with freshly prepared mouse serum for 1 hr at 37 degree. Jurkat cells were treated with the serum with or without peptides and bleomycin (40 μg/ml) and incubated for 24 hr. The population of G2 phase cells was determined by flow cytometry as previously described. The residual G2 checkpoint abrogating activity of serum treated peptides were determined by comparing the % G2 cells of the treated serum and the standard curve produced with medium treated peptides, bleomycin and Jurkat cells (Table 5A).

[6] = Mouse serum treatment analysis, residual peptide by HPLC; assay type: in vitro ADME; conditions: 1 hr at 37 degree, read-out: Residual peptide after 1 hr human serum treatment (Mouse serum treatment analysis)
[7] = system: MIAPaCa2 human pancreatic carcinoma cells; test: Colony formation analysis of MIAPaCa2 cells; assay type: cell-based; conditions: CBP501 with cisplatin or oxaliplatin (1, 3 or 9 μg/ml), three hours then 10 days
Experimental: Briefly, cells were plated at 300 cells/well in 6 well plates, incubated overnight, and treated with the compounds for three hours. The medium was changed and cultured for an additional 10 days. Cells were subsequently fixed with 70% methanol, stained with 0.1% crystal violet and visualized.

[8] = system: HUVEC; test: Growth of normal human umbilical endothelial cells (HUVEC); assay type: cell-based
Experimental: Similar studies were performed using normal human umbilical endothelial cells (HUVEC).

[9] = system: MIAPaCa2; test: Growth inhibition analysis of MIAPaCa2 using alamar blue; assay type: cell-based, human
Experimental: The medium was changed and incubated an additional 24, 48 or 72 hour. Following incubation, 20 μl of alamarBlue 90% reagent was added to each well for another 6 hours for detection of cell viability by fluorescent intensity. Fluorescent intensity was measured using a Spectrafluor Plus plate reader with exitation 530 nm and emission 590 nm. The IC50 was calculated (Table 6).

[10] = system: MIAPaCa2 human pancreatic carcinoma cells; test: MIAPaCa2 human pancreatic carcinoma subcutaneous tumor in scid mice; assay type: in vivo, mouse
Experimental: To study in vivo efficacy of the compounds, MIAPaCa2 human pancreatic carcinoma cells were implanted subcutaneously in scid mice. The treatment was initiated when the size of the primary tumor became 0.1 cm3 (Day0) or larger, e.g., 7 or 8 mm in diameter. CDDP (3 mg/kg) and CBP 501 (10 or 40 mg/kg) were intra-peritoneally administered alone or in combination. Tumor sizes were measured using calipers three times a week, and volumes were calculated using the formula: weight(mg)=[width (mm)2×length (mm)]/2. Mean tumor sizes for each treatment group are plotted (n=4) against the days after the start of treatment (FIG. 10).

[11] = Solubility in water

## N=C(N)NCCC[C@@H](NC(=O)[C@@H](CCCNC(=N)N)NC(=O)[C@@H](CCC(N)=O)NC(=O)[C@@H](CCCNC(=N)N)NC(=O)[C@@H](CCCNC(=N)N)NC(=O)[C@@H](CCCNC(=N)N)NC(=O)[C@@H](CC1CCCCC1)NC(=O)[C@@H](Cc1c(F)c(F)c(F)c(F)c1F)NC(=O)[C@@H](CO)NC(=O)[C@@H](Cc1c[nH]c2ccccc12)NC(=O)[C@@H](CO)NC(=O)[C@H](N)Cc1ccc(C(=O)c2ccccc2)cc1)C(=O)O [CBP501, (d-Bpa)(d-Ser)(d-Trp)(d-Ser)(d-Phe-2,3,4,5,6-F)(d-Cha)(d-Arg)(d-Arg)(d-Arg)(d-Gln)(d-Arg)(d-Arg)] (H-[dBpa][dS][dW][dS][dPhe(F5)][dCha][dR][dR][dR][dQ][dR][dR]-OH; N-terminus and C-terminus assumed)
[1]
  G2 abrogating dose: ≧0.39 μM
[2]
  Non specific toxicity (M checkpoint abrogation) (in words): absent; also recorded: does not affect M phase cell cycle arrest and/or non specific toxicity induced by colchicine
[3]
  Sensitization of HUVEC cells to cisplatin (in words): not sensitized
[4]
  Sensitization of MIAPaCa2 cells to bleomycin and adriamycin (% sub-G1, in words): sensitized MIAPaCa2 cells to both bleomycin and adriamycin in a dose dependent manner
[5]
  Stability in serum (in words): more stable in serum
[6]
  remaining at 1 h, 10 mM: > 90%
[7]
  Effect on cyto-toxic activity of cisplatin and oxaliplatin, colony formation (in words): enhanced the cyto-toxic activity of both cisplatin and oxaliplatin
[8]
  Effect on growth of HUVEC cells, peptide alone (in words): does not affect the growth of HUVEC cells
[9]; compared with cisplatin
  Cell growth inhibition alone (in words): inhibits cell growth better than cisplatin in molar dose
[9]; with 10 μM cisplatin
  Cell growth suppression combined with 10 μM of cisplatin (in words): suppressed cell growth at a much lower dose
[10]; CBP501 10 or 40 mg/kg intra-peritoneal
  Tumor growth, CBP501 treatment alone (in words): suppresses the growth of human pancreatic cancer cell in vivo
[10]; CDDP 3 mg/kg with CBP501 10 or 40 mg/kg intra-peritoneal
  Anti-tumor activity of cisplatin in combination (in words): increased the anti-tumor activity of cisplatin
[11]
  Solubility in water (in words): soluble in water
